The source made the active and inactive calls.
Key:
Phosphodiesterase 4 [1] = biological target: T1, Phosphodiesterase 4 (Homo sapiens, UniProt P27815+Q08499+Q07343+Q08493); test: (§1) Inhibition of human phosphodiesterase 4 from U937 cells; format: cell-based; conditions: u-937
[2] = biological target: T2, Phosphodiesterase 3 (Homo sapiens) (UniProt Q14432+Q13370); test: Inhibition of human platelet Phosphodiesterase 3 at 20 uM (inactive)
[3] = biological target: Phosphodiesterase 4 (Rattus norvegicus) (UniProt P14270+P14646+P14644+P54748); test: Inhibition of rolipram binding to rat brain at 1 uM; format: tissue-based
Phosphodiesterase 4 [4] = biological target: T1, Phosphodiesterase 4; test: as §1; format: cell-based; conditions: U-937, concentration not given here
[5] = biological target: T2, Phosphodiesterase 3 (Homo sapiens); test: Inhibition of human platelet phosphodiesterase 3 at 1 uM
[6] = Bioavailability in guinea pig was tested; format: ADME, organism-based, Cavia porcellus; conditions: in vivo, read-out: Bioavailabiility
[7] = Maximum plsma drug concentration in guinea pig when 3 mg/kg dose was given perorally; format: ADME, organism-based, Cavia porcellus; set-up: dose 3 mg/kg, route oral; conditions: plasma, po
[8] = biological target: T2, Phosphodiesterase 3 (Homo sapiens); test: Inhibition of human platelet Phosphodiesterase 3 at 20 uM
[9] = AUC tested in guinea pig when 3 mg/kg dose was given perorally; format: ADME, organism-based, Cavia porcellus, Plasma; set-up: dose 3 mg/kg, route oral; conditions: in vivo, po
[10] = biological target: T2, Phosphodiesterase 3 (Homo sapiens); test: Inhibition of human platelet Phosphodiesterase 3 at 1 uM (inactive)

SMILES | IC50 (Phosphodiesterase 4 [1]) | other results
CCc1cc2c(C(=O)Nc3cc[n+]([O-])cc3C)cnc(OC)c2o1 | 0.12 µM | –
CCc1cc2c(C(=O)Nc3c(Cl)c[n+]([O-])cc3Cl)cnc(O)c2o1 | – | inhibition [3]: 61%; inhibition (Phosphodiesterase 4 [4]): 22%
COCc1cc2c(C(=O)Nc3c(Cl)c[n+]([O-])cc3Cl)cnc(OC)c2o1 | 0.047 µM | inhibition [2]: inactive
CCc1cc2c(C(=O)Nc3c(Cl)c[n+]([O-])cc3Cl)cnc(OC)c2o1 | 0.014 µM | bioavailability [6]: 54%; Cmax [7]: 1410 ng/mL; inhibition [8]: 32%; AUC [9]: 4942 ng/mL
CCc1cc2c(C(=O)Nc3cc[n+]([O-])cc3OC)cnc(OC)c2o1 | – | inhibition (Phosphodiesterase 4 [4]): 21%
CCc1cc2c(C(=O)Nc3c(Cl)c[n+]([O-])cc3Cl)cnc(OC(F)F)c2o1 | 0.0037 µM | –
COc1ncc(C(=O)Nc2c(Cl)c[n+]([O-])cc2Cl)c2cc(-c3cccnc3)oc12 | 0.062 µM | –

Second part, led by results:

IC50 (Phosphodiesterase 4 [1]) | SMILES | other results
0.066 µM | CCc1cc2c(C(=O)Nc3c(F)cccc3F)cnc(OC)c2o1 | –
0.23 µM | CCc1cc2c(C(=O)Nc3c(C)cc(C#N)cc3Cl)cnc(OC)c2o1 | –
0.048 µM | COc1ncc(C(=O)Nc2c(Cl)c[n+]([O-])cc2Cl)c2cc(C3(OC)CCN(C(=O)OC(C)(C)C)CC3)oc12 | inhibition [2]: inactive
0.023 µM | COc1ncc(C(=O)Nc2c(Cl)c[n+]([O-])cc2Cl)c2cc(C3CCOC3)oc12 (centres undefined) | –
0.12 µM | CCc1cc2c(C(=O)Nc3cc[n+]([O-])cc3Cl)cnc(OC)c2o1 | inhibition [5]: 39%
0.047 µM | COc1ncc(C(=O)Nc2c(Cl)c[n+]([O-])cc2Cl)c2cc(C3CCOCC3)oc12 | inhibition [8]: 3%
0.14 µM | CCc1cc2c(C(=O)Nc3ncncc3C#N)cnc(OC)c2o1 | inhibition [10]: inactive
